Test results from PubChem BioAssay AID1963846 (Molecular Pharmacology Branch, DTP, NCI, 2024).

Test system: 454973-116-R2-J3-PDC complex spheroid viability
Assay: Anticancer human tumor 454973-116-R2-J3-PDC patient-derived pancreatic carcinoma cell line growth inhibition [POLQ]
Conditions: for IC50: curve of first compound; for viability, T/C: stronger effect = lower value
How it was run: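 Three-cell-type spheroids modelling solid tumor plus stroma served as the readout system; POL inhibitors were tested individually and in combination, concentration ranges set by clinical Cmax where known.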

[1] = second compound 0.0316 µM, first compound 0.0316 µM
[2] = second compound 0.0316 µM, first compound 0.1 µM
[3] = second compound 0.0316 µM, first compound 0.316 µM
[4] = second compound 0.0316 µM, first compound 1 µM
[5] = second compound 0.0316 µM, first compound 3.16 µM
[6] = second compound 0.0316 µM, first compound 10 µM
[7] = second compound 0.1 µM, first compound 0.0316 µM
[8] = second compound 0.1 µM, first compound 0.1 µM
[9] = second compound 0.1 µM, first compound 0.316 µM
[10] = second compound 0.1 µM, first compound 1 µM
[11] = second compound 0.1 µM, first compound 3.16 µM
[12] = second compound 0.1 µM, first compound 10 µM
[13] = second compound 0.316 µM, first compound 0.0316 µM
[14] = second compound 0.316 µM, first compound 0.1 µM
[15] = second compound 0.316 µM, first compound 0.316 µM
[16] = second compound 0.316 µM, first compound 1 µM
[17] = second compound 0.316 µM, first compound 3.16 µM
[18] = second compound 0.316 µM, first compound 10 µM
[19] = second compound 1 µM, first compound 0.0316 µM
[20] = second compound 1 µM, first compound 0.1 µM
[21] = second compound 1 µM, first compound 0.316 µM
[22] = second compound 1 µM, first compound 1 µM
[23] = second compound 1 µM, first compound 3.16 µM
[24] = second compound 1 µM, first compound 10 µM
[25] = second compound 3.16 µM, first compound 0.0316 µM
[26] = second compound 3.16 µM, first compound 0.1 µM
[27] = second compound 3.16 µM, first compound 0.316 µM
[28] = second compound 3.16 µM, first compound 1 µM
[29] = second compound 3.16 µM, first compound 3.16 µM
[30] = second compound 3.16 µM, first compound 10 µM
[31] = second compound 10 µM, first compound 0.0316 µM
[32] = second compound 10 µM, first compound 0.1 µM
[33] = second compound 10 µM, first compound 0.316 µM
[34] = second compound 10 µM, first compound 1 µM
[35] = second compound 10 µM, first compound 3.16 µM
[36] = second compound 10 µM, first compound 10 µM
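Also: spheroids exposed to drugs for seven days before measurement.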
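For viability, T/C in this document: percent viability relative to DMSO vehicle control wells taken as 100%.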

CNCc1ccc(-c2[nH]c3cc(F)cc4c3c2CCNC4=O)cc1 + COC1C(OC(N)=O)C(O)C(Oc2ccc3c(O)c(NC(=O)c4ccc(O)c(CC=C(C)C)c4)c(=O)oc3c2C)OC1(C)C
IC50 (second compound 0.0316 µM): > 10 µM | IC50 (second compound 0.1 µM): > 10 µM | IC50 (second compound 0.316 µM): > 10 µM | IC50 (second compound 1 µM): > 10 µM | IC50 (second compound 3.16 µM): > 10 µM | IC50 (second compound 10 µM): > 10 µM | viability, T/C [1]: 99.4% | viability, T/C [2]: 115% | viability, T/C [3]: 98.6% | viability, T/C [4]: 106% | viability, T/C [5]: 104% | viability, T/C [6]: 92% | viability, T/C [7]: 98.2% | viability, T/C [8]: 103% | viability, T/C [9]: 103% | viability, T/C [10]: 104% | viability, T/C [11]: 106% | viability, T/C [12]: 89.1% | viability, T/C [13]: 102% | viability, T/C [14]: 113% | viability, T/C [15]: 100% | viability, T/C [16]: 105% | viability, T/C [17]: 95.8% | viability, T/C [18]: 87.8% | viability, T/C [19]: 106% | viability, T/C [20]: 99% | viability, T/C [21]: 101% | viability, T/C [22]: 98.7% | viability, T/C [23]: 97.8% | viability, T/C [24]: 88% | viability, T/C [25]: 112% | viability, T/C [26]: 104% | viability, T/C [27]: 101% | viability, T/C [28]: 98.8% | viability, T/C [29]: 99.3% | viability, T/C [30]: 87.5% | viability, T/C [31]: 103% | viability, T/C [32]: 97.3% | viability, T/C [33]: 92.8% | viability, T/C [34]: 98.3% | viability, T/C [35]: 92% | viability, T/C [36]: 85.1%

CC1COCCN1c1cc(-c2ccnn2C)c2ccnc(-c3ccn[nH]3)c2n1 (stereo unspecified) + Cc1cccc(N(C)C(=O)C2C(O)CCN2c2nc(C)cc(C(F)(F)F)c2C#N)c1
IC50 (second compound 0.0316 µM): 0.207 µM | IC50 (second compound 0.1 µM): 0.202 µM | IC50 (second compound 0.316 µM): 0.198 µM | IC50 (second compound 1 µM): 0.195 µM | IC50 (second compound 3.16 µM): 0.192 µM | IC50 (second compound 10 µM): 0.181 µM | viability, T/C [1]: 95.3% | viability, T/C [2]: 73.4% | viability, T/C [3]: 37% | viability, T/C [4]: 21.7% | viability, T/C [5]: 22.3% | viability, T/C [6]: 25.4% | viability, T/C [7]: 92.6% | viability, T/C [8]: 74.4% | viability, T/C [9]: 35% | viability, T/C [10]: 20.8% | viability, T/C [11]: 21.3% | viability, T/C [12]: 27.8% | viability, T/C [13]: 97.2% | viability, T/C [14]: 73.3% | viability, T/C [15]: 34.5% | viability, T/C [16]: 20% | viability, T/C [17]: 20.1% | viability, T/C [18]: 25% | viability, T/C [19]: 105% | viability, T/C [20]: 71.7% | viability, T/C [21]: 35.3% | viability, T/C [22]: 21.3% | viability, T/C [23]: 22% | viability, T/C [24]: 25.4% | viability, T/C [25]: 113% | viability, T/C [26]: 71.8% | viability, T/C [27]: 34.1% | viability, T/C [28]: 21.7% | viability, T/C [29]: 21.8% | viability, T/C [30]: 26.4% | viability, T/C [31]: 97.9% | viability, T/C [32]: 67.7% | viability, T/C [33]: 34.2% | viability, T/C [34]: 19.5% | viability, T/C [35]: 24.4% | viability, T/C [36]: 23.1%

CCc1c2c(nc3ccc(O)cc13)-c1cc3c(c(=O)n1C2)COC(=O)[C@]3(O)CC + Cc1cccc(N(C)C(=O)C2C(O)CCN2c2nc(C)cc(C(F)(F)F)c2C#N)c1
IC50 (second compound 0.0316 µM): < 0.00316 µM | IC50 (second compound 0.1 µM): < 0.00316 µM | IC50 (second compound 0.316 µM): < 0.00316 µM | IC50 (second compound 1 µM): < 0.00316 µM | IC50 (second compound 3.16 µM): < 0.00316 µM | IC50 (second compound 10 µM): < 0.00316 µM | viability, T/C (second compound 0.0316 µM, first compound 0.00316 µM): 32.6% | viability, T/C (second compound 0.0316 µM, first compound 0.01 µM): 17.2% | viability, T/C [1]: 13.2% | viability, T/C [2]: 6.84% | viability, T/C [3]: 2.58% | viability, T/C [4]: 1.69% | viability, T/C (second compound 0.1 µM, first compound 0.00316 µM): 31.1% | viability, T/C (second compound 0.1 µM, first compound 0.01 µM): 19.1% | viability, T/C [7]: 13.6% | viability, T/C [8]: 5.52% | viability, T/C [9]: 2.13% | viability, T/C [10]: 1.7% | viability, T/C (second compound 0.316 µM, first compound 0.00316 µM): 28.8% | viability, T/C (second compound 0.316 µM, first compound 0.01 µM): 17.2% | viability, T/C [13]: 15% | viability, T/C [14]: 5.17% | viability, T/C [15]: 1.9% | viability, T/C [16]: 1.61% | viability, T/C (second compound 1 µM, first compound 0.00316 µM): 35.7% | viability, T/C (second compound 1 µM, first compound 0.01 µM): 18.7% | viability, T/C [19]: 11.5% | viability, T/C [20]: 5.4% | viability, T/C [21]: 2.24% | viability, T/C [22]: 1.72% | viability, T/C (second compound 3.16 µM, first compound 0.00316 µM): 33.6% | viability, T/C (second compound 3.16 µM, first compound 0.01 µM): 21.9% | viability, T/C [25]: 13.1% | viability, T/C [26]: 5.13% | viability, T/C [27]: 2.23% | viability, T/C [28]: 1.68% | viability, T/C (second compound 10 µM, first compound 0.00316 µM): 26.3% | viability, T/C (second compound 10 µM, first compound 0.01 µM): 21.5% | viability, T/C [31]: 12.8% | viability, T/C [32]: 4.56% | viability, T/C [33]: 1.72% | viability, T/C [34]: 4.16%
